Reference: patent publication US20100173937A1, “USE OF TETRAKIS-QUATERNARY AMMONIUM SALTS AS PAIN MODULATING AGENTS” (University of Kentucky Research Foundation, priority 2008, published 2010)

Legend:
[1] = test system: formalin-induced flinching; assay: rat model of tonic inflammatory pain (the formalin test); format: in vivo; conditions: intraperitoneal, 3.6-3600 μg/kg, 15 minutes prior to formalin, phase 1 and 2, FIGS. 1 and 2
Description: A rat model of tonic inflammatory pain (the formalin test) was used in this study (Wheeler-Aceto and Cowan, 1991). Fifty μl of formalin (5%) was injected subcutaneously (SC) into the dorsal surface of the left hind paw. This procedure typically produces a biphasic behavioral response consisting of flinching, lifting and licking. The first phase (0-10 minutes) results from direct stimulation of nociceptors (nociceptive pain) whereas the second phase (20-60 minutes) is thought to involve central sensitization. Rats (3/dose) were pretreated 15 minutes prior to formalin (SC) injection with ZZ-204G (3.6-3600 μg/kg) administered by the IP route. ZZ-204G is as below:
Saline served as control. Incidences of formalin-induced flinching were counted continuously in 5 minute intervals for 60 minutes. Each rat received only one treatment.

[2] = test system: mechanical hyperalgesia in CCI rats; assay: rat chronic constriction nerve injury (CCI) model of neuropathic pain, paw pressure test; format: in vivo; conditions: intraperitoneal, 3.6-3600 μg/kg, 15-120 minutes after injection, FIGS. 3 and 4
Description: A rat model of neuropathic pain (the chronic constriction nerve injury model; CCI) was used. Unilateral peripheral mononeuropathy was produced on the left hind limb according to the method described by Bennett and Xie (1988). Under pentobarbital anesthesia (40 mg/kg, IP) ligation of the siatic nerve and sham surgery were performed in each rat on the left and right hind paws, respectively. Proximal to the sciatice trifurcation, the nerve (about 7 mm) was freed from adhering tissue and four loose ligatures were tied around the nerve (1 mm apart) using 4.0 chromic catgut, barely constricting the diameter of the nerve. In sham surgery, the right sciatic nerve was exposed using the same procedure, but the nerve was not ligated. The incision was closed in layers with silk thread 3.0. […] No severe motor impairment was observed.
The presence of a decreased threshold to mechanical noxious stimuli (mechanical hyperalgesia) was evaluated by the Randal and Selitto (1957) method (paw pressure test) in CCI rats. The hind paw was placed between a flat surface and a blunt pointer in the Basile Analgesimeter (UGO Basile, Italy) and increasing pressure (32 g/s) was applied to the dorsal side of the paw. Vocalization was used as the end point (vocalization threshold, VT, g). […] Responses were assessed prior to (baseline, taken twice) and at 15, 30, 45, 60 and 120 minutes after injection. […]

Structure (SMILES): C(#Cc1cc(C#CCCC[n+]2cccc(-c3ccccc3)c2)c(C#CCCC[n+]2cccc(-c3ccccc3)c2)cc1C#CCCC[n+]1cccc(-c2ccccc2)c1)CCC[n+]1cccc(-c2ccccc2)c1.[Br-].[Br-].[Br-].[Br-] [ZZ-204G]
- analgesic effect in the rodent formalin tonic inflammatory pain model (formalin-induced flinching) [1]: analgesic effect
- antihyperalgesic effect in the rodent chronic constriction nerve injury model (vocalization threshold, paw pressure test) [2]: antihyperalgesic effect
